Earlier results on 4 compounds are cited in patent publication US6313179A, “Treatment of hyperproliferative skin disorders with C18 to C20 aliphatic alcohols” (Avanir Pharmaceuticals, priority 1998, dated 2001).

The conditions of the data set: oral ingestion; U.S. Pat. No. 3,031,376; cited from earlier work.
For the compound `CCCCCCCCCCCCCCCCCCCCCCCCCCCCCCO` [triacontanol, reference compound], the “physical performance of athletes” value was “improved physical performance of athletes”.
For `CCCCCCCCCCCCCCCCCCCCCCCCO` [n-tetracosanol], the “physical performance of athletes” value is “improved physical performance of athletes”.
Turning to `CCCCCCCCCCCCCCCCCCCCCCCCCCCCO` [n-octacosanol, reference compound], the “physical performance of athletes” value was “improved physical performance of athletes”.
`CCCCCCCCCCCCCCCCCCCCCCCCCCO` [n-hexacosanol]: the “physical performance of athletes” value is reported as “improved physical performance of athletes”.
